Molecules are shown by their SMILES.

Common to all, as to assay type: cell-based
Assay [1] addresses T1, ASIC3 (Rattus norvegicus, UniProt O35240).
T1 sequence (O35240 1-533): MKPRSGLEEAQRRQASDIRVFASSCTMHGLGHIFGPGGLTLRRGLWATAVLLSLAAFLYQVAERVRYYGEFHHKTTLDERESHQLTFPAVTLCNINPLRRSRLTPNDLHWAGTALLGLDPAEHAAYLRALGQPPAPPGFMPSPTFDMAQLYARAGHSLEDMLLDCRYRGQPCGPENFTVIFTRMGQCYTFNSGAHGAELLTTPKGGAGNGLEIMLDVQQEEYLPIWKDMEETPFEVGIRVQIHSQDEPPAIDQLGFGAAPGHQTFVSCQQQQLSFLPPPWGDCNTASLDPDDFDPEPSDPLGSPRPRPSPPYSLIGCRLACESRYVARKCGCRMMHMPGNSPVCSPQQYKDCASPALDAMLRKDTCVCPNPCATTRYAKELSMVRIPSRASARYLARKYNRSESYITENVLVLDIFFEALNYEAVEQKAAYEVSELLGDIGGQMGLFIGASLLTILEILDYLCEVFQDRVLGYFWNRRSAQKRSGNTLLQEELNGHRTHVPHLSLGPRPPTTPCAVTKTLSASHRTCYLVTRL
The experiment in a line: whole-cell patch clamp, concentration dependence of shift of activation pH0.[…]. (In general: The patch-clamp technique gives a direct electrical read-out from membranes.)

Assay [2] addresses T1, ASIC3. As to the kind of experiment: whole-cell patch clamp, shift of activation pH0.[…].
In assay [3] the target is T1, ASIC3. The experiment in a line: whole-cell patch clamp.

Consider `CCCCC/C=C\C/C=C\C/C=C\C/C=C\CCCC(=O)O` [AA, arachidonic acid], for which the EC50 at ASIC3 [1] is 11 ± 2 µM. For the compound `CCCCC/C=C\C/C=C\C/C=C\C/C=C\CCCC(=O)NCC(=O)O` [AG, arachidonyl glycine], at ASIC3 [2], the concentration for a half-maximal effect (EC50) worked out at 5.4 ± 1.12 µM.

For the compound `CC/C=C\C/C=C\C/C=C\C/C=C\C/C=C\CCCCCC(=O)O` [DPA, docosapentaenoic acid], on ASIC3 [3], the “whole-cell patch clamp; pH0.5 shift at 10 μM and concentration dependence at pH” value is given as 0.27 ΔpH0.5 at 10 µM.

A word on the EC50: it is the concentration giving half of the maximal effect.

Values taken from paper PMC9120901 (The Journal of General Physiology, 2022).
